Reference: US8962845B2, “Pyrazole compounds” (National Health Research Institutes, priority 2011, dated 2015)

Assays:
[1] = system: male C57BL/6 mice; experiment: Tetrad response test (body temperature, tail-flick after CP55,940); assay type: in vivo; details: CP55,940 1 mg/kg i.p.
Protocol: Body temperature and tail-flick responses were measured by rectal thermometer (Natsume, Japan) and tail-flick analgesia meter RS232 (Columbus, USA), respectively, in male C57BL/6 mice. One hour after oral administration of a test compound dissolved in DMSO/Tween 80/H2O (1/1/8 by volume), 1 mg/kg of CP55,940 in saline containing 0.5% DMSO was injected intraperitoneally. Body temperature was measured at a time point of 30 and 65 min, and tail flick response was measured at a time point of 35 min after the injection.

[2] = system: diet-induced obese mice; experiment: Treatment of diet-induced obese mice; assay type: in vivo, C57BL/6 mice; details: 21 days
Protocol: Six-week-old C57BL/6 mice were given high-fat diet (Research Diet D 12451; 45% fat, 20% protein, and 35% carbohydrate) for more than 12 weeks before treated with a test compound. Mice weight matched were assigned to different groups and orally gavaged once daily with a vehicle (10% DMSO/10% Tween 80/80% H2O) or a test compound at a defined dosage (e.g., 10 and 20 mg/kg) for at least two weeks. The sum of food taken for each treatment and the body weight were measured daily.

[3] = system: estrogen deficiency-induced osteoporosis mice; experiment: Treatment of estrogen deficiency-induced osteoporosis mice; assay type: in vivo; details: ovariectomized mice, 5 days per week for 2, 4, and 8 weeks; for trabecular bone microstructure: μCT
Protocol: Three-month-old female mice were subjected to bilateral ovariectomy or sham operation. Two weeks postoperatively, a CB1 antagonist (i.e., compounds 10, 63, and 119) or vehicle was administered 5 days per week for 2, 4, and 8 weeks. Bone mineral density and bone mineral contents in femurs, tibiae, and L1-L5 spine were measured by dual energy x-ray absorptiometry. Trabecular bone microstructure (i.e., trabecular bone volume, thickness, number, separation, porosity, and bone volume index) in femurs, tibiae and spine were analyzed by μCT scanning Mechanical strength of the bones was detected by a material test machine.

[4] = system: diabetic rats; experiment: Streptozotocin-induced diabetic nephropathy and kidney fibrosis; assay type: in vivo, Wistar rats; details: 4 weeks; for kidney fibrosis: periodic acid-Schiff staining
Protocol: Three-month-old male Wistar rats were given intraperitoneal streptozotocin (50 mg/kg) to induce diabetes. Two weeks later, diabetic rats that had fasting blood glucose levels of […] were selected for studies. Caged in a metabolic cage system, the diabetic rats were administered a CB1 antagonist (i.e., compounds 10, 63, and 119) for 4 weeks while their urine was collected. To evaluate renal function, protein and creatinine levels in urine were measured by ELISA. To evaluate renal fibrosis, kidneys were dissected, fixed, paraffin wax embedded, and sectioned for histologic assessment after periodic acid-Schiff staining.

[5] = system: osteoarthritic rats; experiment: ACLT-induced knee osteoarthritis; assay type: in vivo, Sprague-Dawley rats; details: 8 weeks
Protocol: Four-month-old male Sprague-Dawley rats were anesthetized using intramuscular atropine (1 mg/kg) and intraperitoneal pentobarbital. The left knees of rats underwent medial parapatellar arthrotomy and transection of the anterior cruciate ligament (ACLT) to induce knee osteoarthritis. The osteoarthritic rats were given a CB1 antagonist (i.e., compounds 10, 63, and 119) or vehicle for 8 weeks. Knee joint radiography was evaluated by a mammography system. Gait profiles of joints in osteoarthritic rats were analyzed by a CatWalk system. Joint morphology was histologically evaluated by a Mankin scoring system.

Row | SMILES | reversal of CB1 agonist-induced analgesic response ([1]; oral dose up to 100 mg/kg) | reversal of CB1 agonist-induced hypothermia ([1]; oral dose up to 100 mg/kg) | relative weight-loss rate ([2]; 10 mg/kg group, oral once daily) [%] | relative weight-loss rate ([2]; 20 mg/kg group, oral once daily) [%] | bone mineral density [3] | trabecular bone microstructure [3] | urine albumin level [4] | kidney fibrosis [4] | Mankin score [5] | reversal of CB1 agonist-induced analgesic response ([1]; dose as low as 2 mg/kg) | reversal of CB1 agonist-induced hypothermia ([1]; dose as low as 2 mg/kg) | relative weight-loss rate ([2]; rimonabant comparison, dose not given) [%]
1 | O=C(NN1CCCCC1)c1nn(-c2ccc(Cl)cc2Cl)c(-c2ccc(C#Cc3ccc(C(F)(F)F)cc3)s2)c1CNS(=O)(=O)N1CCCC1 [Compound 10, 1-(2,4-Dichlorophenyl)-N-(piperidin-1-yl)-4-((pyrrolidine-1-sulfonamido)methyl)-5-(5-((4-(trifluoromethyl)phenyl)ethynyl)thiophen-2-yl)-1H-pyrazole-3-carboxamide] | did not reverse or slightly reversed | did not reverse or slightly reversed | 26.4 | 32.8 | increase | improvement | decrease | reduction | reduction |  |  | 
2 | Cc1c(C(=O)NN2CCCCC2)nn(-c2ccc(Cl)cc2Cl)c1-c1ccc(Cl)cc1 [rimonabant, reference compound] |  |  |  |  |  |  |  |  |  | significantly reversed | significantly reversed | 29.1
3 | O=C(NN1CCCCC1)c1nn(-c2ccc(Cl)cc2Cl)c(-c2ccc(Cl)cc2)c1CNS(=O)(=O)N1CCCC1 [Compound 119, 5-(4-Chlorophenyl)-1-(2,4-dichlorophenyl)-N-(piperidin-1-yl)-4-((pyrrolidine-1-sulfonamido)methyl)-1H-pyrazole-3-carboxamide] | did not reverse or slightly reversed | did not reverse or slightly reversed |  |  | increase | improvement | decrease | reduction | reduction |  |  | 
4 | CCCC#Cc1ccc(-c2c(CNS(=O)(=O)N3CCCCC3)c(C(=O)NN3CCCCC3)nn2-c2ccc(Cl)cc2Cl)s1 [Compound 63, 1-(2,4-Dichlorophenyl)-5-(5-(pent-1-ynyl)thiophen-2-yl)-N-(piperidin-1-yl)-4-((piperidine-1-sulfonamido)methyl)-1H-pyrazole-3-carboxamide] | did not reverse or slightly reversed | did not reverse or slightly reversed |  |  | increase | improvement | decrease | reduction | reduction |  |  | 
